We go through 27 molecules from paper PMC6458391, “Deep eutectic solvent for an expeditious sono-synthesis of novel series of bis-quinazolin-4-one derivatives as potential anti-cancer agents” (Royal Society Open Science, 2019).

Structures are written as SMILES. Read-outs that look alike come from different tables or passages of the source.

In data set [1] the test system is A549 (lung cancer) cell line. The data set can be described thus: MTT cytotoxicity assay, A549. The note with it: for inhibition: 48 h, triplicate, mean ± s.e.m.; for IC50: read-out: IC50 A549, MTT, 48 h drug treatment, A549.
Description: Two concentrations (10 and 30 µM in triplicate) of the derivatives were utilized and after 48 h of drug treatment the results were analyzed. The obtained results were tabulated as mean ± s.e.m. With standard errors below 10%, the reproducibility between replicate wells is within the acceptable values.
The cytotoxic activities of all newly prepared derivatives were assessed in monolayer cultures by utilizing MTT assay. […] The tested derivatives were prepared prior to the experiment by dissolving in 0.1% DMSO and diluted with medium. The cells were then exposed to two concentrations of drugs (10 and 30 µM) in the volume of 100 µM/well. Cells in the control wells received the same volume of medium comprising 0.1% DMSO. After 24 h, the medium was removed and cell cultures were incubated with 100 ml MTT reagent for 5 h at 37°C. The known number of cells was incubated in a 5% CO2 incubator at 37°C in the presence of different concentrations of test compounds. After 48 h of drug incubation, the MTT solution was added in each well and the absorbance was measured by using a microplate reader at 490 nm. The experiment was performed in triplicate. Cell survival was calculated as the percentage of MTT inhibition as % growth inhibition = 100 − (mean OD of individual test group/mean OD of each control group) × 100.
Setting [2] is: read-out: Cells viability (%) A549, 10 μM, 10 μM.
The mark [3] stands for this setting: read-out: Cells viability (%) A549, 30 μM, 30 μM.

In turn, `Cc1ccc2nc(C)n([C@H]3CC[C@H](n4c(C)nc5ccc(C)cc5c4=O)CC3)c(=O)c2c1` [Compound 3b, 3,3′-((1R,4R)-Cyclohexane-1,4-diyl)bis(2,6-dimethylquinazolin-4(3H)-one)] displayed a melting point of 280 to 281 °C. Moreover, the inhibition in data set [1] (setting [2]) stood at 39.3 ± 2.76%. Moreover, the inhibition in data set [1] (setting [3]) was 90.12 ± 0.25%. In addition, the IC50 in data set [1] turned out to be 15.7 µM.

In turn, `Cc1ccc2nc(C)n(-c3ccc(S(=O)(=O)c4ccc(-n5c(C)nc6ccc(C)cc6c5=O)cc4)cc3)c(=O)c2c1` [Compound 7b, 3,3′-(Sulfonylbis(4,1-phenylene))bis(2,6-dimethylquinazolin-4(3H)-one)] returned a melting point of 310 to 313 °C. In addition, in data set [1] (setting [2]), the inhibition was found to be 53.1 ± 2.2%. Besides, in data set [1] (setting [3]), the inhibition is 86.8 ± 1.19%. Moreover, the IC50 in data set [1] came to 5.77 µM.

`Cc1nc2ccccc2c(=O)n1Cc1ccc(Cn2c(C)nc3ccccc3c2=O)cc1` [Compound 4a, 3,3′-(1,4-Phenylenebis(methylene))bis(2-methylquinazolin-4(3H)-one)] came in with a melting point of 277 to 279 °C. In addition, the inhibition in data set [1] (setting [2]) stood at 60.4 ± 3.31%. Moreover, the inhibition in data set [1] (setting [3]) turned out to be 62.9 ± 1.45%. Moreover, the IC50 in data set [1] was 6.11 µM.

Molecule `Cc1nc2ccc(F)cc2c(=O)n1[C@H]1CC[C@H](n2c(C)nc3ccc(F)cc3c2=O)CC1` [Compound 3d, 3,3'-((1R,4R)-Cyclohexane-1,4-diyl)bis(6-fluoro-2-methylquinazolin-4(3H)-one)] returned a melting point of 262 to 264 °C. For the same molecule, the inhibition in data set [1] (setting [2]) was 67.49 ± 0.27%. Besides, in data set [1] (setting [3]), the inhibition was 90 ± 43%. Moreover, the IC50 in data set [1] is 8.11 µM.

In the case of `Cc1ccc2nc(C)n(Cc3ccc(Cn4c(C)nc5ccc(C)cc5c4=O)cc3)c(=O)c2c1` [Compound 4b, 3,3′-(1,4-Phenylenebis(methylene))bis(2,6-dimethylquinazolin-4(3H)-one)], the melting point was in the range of 285 to 287 °C. Further, the inhibition in data set [1] (setting [2]) is 76 ± 2.21%. For the same molecule, the inhibition in data set [1] (setting [3]) is 78.7 ± 1.76%. Besides, the IC50 in data set [1] was 6.79 µM.

Regarding `Cc1nc2ccc(F)cc2c(=O)n1Cc1ccc(Cn2c(C)nc3ccc(F)cc3c2=O)cc1` [Compound 4d, 3,3′-(1,4-Phenylenebis(methylene))bis(6-fluoro-2-methylquinazolin-4(3H)-one)], the melting point is 217 to 219 °C. Moreover, the inhibition in data set [1] (setting [2]) was 94.29 ± 0.39%. Also, the inhibition in data set [1] (setting [3]) worked out at 96.09 ± 0.244%. In addition, in data set [1], the IC50 came out at 5.55 µM.

Consider `Cc1nc2ccccc2c(=O)n1-c1cccc(-n2c(C)nc3ccccc3c2=O)c1` [Compound 11, 3,3′-(1,3-Phenylene)bis(2-methylquinazolin-4(3H)-one)], for which the melting point fell in the range of 236 to 238 °C. Besides, the inhibition in data set [1] (setting [2]) was 79.8 ± 1.05%. In addition, the inhibition in data set [1] (setting [3]) was found to be 83.2 ± 1.02%. In addition, the IC50 in data set [1] came out at 5.94 µM.

For the molecule `CNC(=O)c1cc(Oc2ccc(NC(=O)Nc3ccc(Cl)c(C(F)(F)F)c3)cc2)ccn1` [Sorafenib, sorafenib, reference compound], the inhibition in data set [1] (setting [2]) turned out to be 89.8 ± 1.14%; in data set [1] (setting [3]) it was 91.2 ± 1.44%. The IC50 in data set [1] was 5.2 µM.

Take `Cc1nc2ccccc2c(=O)n1-c1ccccc1-n1c(C)nc2ccccc2c1=O` [Compound 9, 3,3′-(1,2-Phenylene)bis(2-methylquinazolin-4(3H)-one)]: the melting point fell in the range of 187 to 190 °C.

`Cc1ccc2nc(C)n(-c3ccc(-n4c(C)nc5ccc(C)cc5c4=O)cc3)c(=O)c2c1` [Compound 6b, 3,3′-(1,4-Phenylene)bis(2,6-dimethylquinazolin-4(3H)-one)] showed a melting point of 263 to 265 °C. In data set [1] (setting [2]), the inhibition is 59.2 ± 1.53%. Also, the inhibition in data set [1] (setting [3]) is 95.12 ± 0.22%. Besides, the IC50 in data set [1] came out at 8.13 µM.

As to `Cc1nc2ccc(Cl)cc2c(=O)n1Cc1ccc(Cn2c(C)nc3ccc(Cl)cc3c2=O)cc1` [Compound 4c, 3,3′-(1,4-Phenylenebis(methylene))bis(6-chloro-2-methylquinazolin-4(3H)-one)], the melting point lay within 327 to 330 °C. Besides, the inhibition in data set [1] (setting [2]) was determined as 79.5 ± 2.61%. Moreover, in data set [1] (setting [3]), the inhibition is 81.8 ± 0.87%. For the same molecule, in data set [1], the IC50 is 6.07 µM.

Molecule `Cc1nc2ccc([N+](=O)[O-])cc2c(=O)n1-c1ccc(-n2c(C)nc3ccc([N+](=O)[O-])cc3c2=O)cc1` [Compound 6e, 3,3′-(1,4-Phenylene)bis(2-methyl-6-nitroquinazolin-4(3H)-one)] came in with a melting point of 307 to 310 °C. The inhibition in data set [1] (setting [2]) is 95.4 ± 0.24%. Moreover, the inhibition in data set [1] (setting [3]) stood at 97.6 ± 0.21%. In data set [1], the IC50 was determined as 3.43 µM.

Molecule `Cc1nc2ccccc2c(=O)n1[C@H]1CC[C@H](n2c(C)nc3ccccc3c2=O)CC1` [Compound 3a, 3,3′-((1R,4R)-Cyclohexane-1,4-diyl)bis(2-methylquinazolin-4(3H)-one)] registered a melting point of 273 to 275 °C. Also, the inhibition in data set [1] (setting [2]) amounted to 60.2 ± 1.56%. Besides, the inhibition in data set [1] (setting [3]) stood at 97.2 ± 0.41%. Further, the IC50 in data set [1] was 8.15 µM.

Take `Cc1ccc2nc(C)n(CCn3c(C)nc4ccc(C)cc4c3=O)c(=O)c2c1` [Compound 5b, 3,3′-(Ethane-1,2-diyl)bis(2,6-dimethylquinazolin-4(3H)-one)]: the melting point lay within 211 to 212 °C. For the same molecule, the inhibition in data set [1] (setting [2]) was 40 ± 2.11%. Further, the inhibition in data set [1] (setting [3]) worked out at 89.7 ± 1.76%. In addition, in data set [1], the half-inhibitory concentration (IC50) came out at 15.7 µM.

`Cc1nc2ccc(Cl)cc2c(=O)n1CCn1c(C)nc2ccc(Cl)cc2c1=O` [Compound 5c, 3,3′-(Ethane-1,2-diyl)bis(6-chloro-2-methylquinazolin-4(3H)-one)]: the melting point is 244 to 246 °C. For the same molecule, the inhibition in data set [1] (setting [2]) worked out at 61.9 ± 2.34%. Further, the inhibition in data set [1] (setting [3]) stood at 82.1 ± 1.93%. Also, the half-inhibitory concentration (IC50) in data set [1] is 7.98 µM.

In the case of `Cc1nc2ccccc2c(=O)n1CCn1c(C)nc2ccccc2c1=O` [Compound 5a, 3,3′-(Ethane-1,2-diyl)bis(2-methylquinazolin-4(3H)-one)], the melting point was in the range of 190 to 192 °C. Also, the inhibition in data set [1] (setting [2]) came to 32.4 ± 2.91%. In data set [1] (setting [3]), the inhibition was 88.7 ± 1.83%. The 50% inhibitory concentration (IC50) in data set [1] came out at 12.3 µM.

As for `Cc1nc2ccc(F)cc2c(=O)n1-c1ccc(S(=O)(=O)c2ccc(-n3c(C)nc4ccc(F)cc4c3=O)cc2)cc1` [Compound 7d, 3,3′-(Sulfonylbis(4,1-phenylene))bis(6-fluoro-2-methylquinazolin-4(3H)-one)], the melting point lay in the range of 301 to 303 °C. Moreover, in data set [1] (setting [2]), the inhibition came to 96.46 ± 0.65%. For the same molecule, the inhibition in data set [1] (setting [3]) came out at 96.68 ± 0.17%. Moreover, the IC50 in data set [1] was found to be 3.45 µM.

Consider `Cc1nc2ccc(F)cc2c(=O)n1CCn1c(C)nc2ccc(F)cc2c1=O` [Compound 5d, 3,3′-(Ethane-1,2-diyl)bis(6-fluoro-2-methylquinazolin-4(3H)-one)], for which the melting point lay within 219 to 221 °C. Moreover, in data set [1] (setting [2]), the inhibition was determined as 54.49 ± 0.27%. The inhibition in data set [1] (setting [3]) was 90 ± 43%. Also, in data set [1], the IC50 is 7.95 µM.

Molecule `Cc1nc2ccc(Cl)cc2c(=O)n1-c1ccc(S(=O)(=O)c2ccc(-n3c(C)nc4ccc(Cl)cc4c3=O)cc2)cc1` [Compound 7c, 3,3′-(Sulfonylbis(4,1-phenylene))bis(6-chloro-2-methylquinazolin-4(3H)-one)] returned a melting point of 332 to 335 °C. Also, the inhibition in data set [1] (setting [2]) worked out at 72.3 ± 0.78%. The inhibition in data set [1] (setting [3]) was 88.43 ± 0.19%. The concentration for half-maximal inhibition (IC50) in data set [1] turned out to be 4.21 µM.

`Cc1nc2ccc([N+](=O)[O-])cc2c(=O)n1[C@H]1CC[C@H](n2c(C)nc3ccc([N+](=O)[O-])cc3c2=O)CC1` [Compound 3e, 3,3′-((1R,4R)-Cyclohexane-1,4-diyl)bis(2-methyl-6-nitroquinazolin-4(3H)-one)] returned a melting point of 301 to 304 °C. Besides, in data set [1] (setting [2]), the inhibition was 77.1 ± 1.78%. The inhibition in data set [1] (setting [3]) amounted to 82.8 ± 1.64%. In addition, in data set [1], the half-inhibitory concentration (IC50) was 5.34 µM.

With `Cc1nc2ccc(Cl)cc2c(=O)n1[C@H]1CC[C@H](n2c(C)nc3ccc(Cl)cc3c2=O)CC1` [Compound 3c, 3,3′-((1R,4R)-Cyclohexane-1,4-diyl)bis(6-chloro-2-methylquinazolin-4(3H)-one)], the melting point was 311 to 313 °C. Further, the inhibition in data set [1] (setting [2]) was determined as 61.1 ± 1.82%. For the same molecule, the inhibition in data set [1] (setting [3]) is 96.98 ± 0.4%. In data set [1], the IC50 stood at 8.14 µM.

Turning to `Cc1nc2ccc(Cl)cc2c(=O)n1-c1ccc(-n2c(C)nc3ccc(Cl)cc3c2=O)cc1` [Compound 6c, 3,3′-(1,4-Phenylene)bis(6-chloro-2-methylquinazolin-4(3H)-one)], the melting point fell in the range of 287 to 290 °C. In addition, in data set [1] (setting [2]), the inhibition turned out to be 91.98 ± 0.49%. The inhibition in data set [1] (setting [3]) is 98.02 ± 0.21%. In data set [1], the half-inhibitory concentration (IC50) was 5.15 µM.

For the molecule `Cc1nc2ccccc2c(=O)n1-c1ccc(-n2c(C)nc3ccccc3c2=O)cc1` [Compound 6a, 3,3′-(1,4-Phenylene)bis(2-methylquinazolin-4(3H)-one)], the melting point lay in the range of 178 to 180 °C. The inhibition in data set [1] (setting [2]) stood at 54.49 ± 0.27%. For the same molecule, the inhibition in data set [1] (setting [3]) came out at 90 ± 43%. For the same molecule, the concentration for half-maximal inhibition (IC50) in data set [1] amounted to 8.41 µM.

`Cc1nc2ccccc2c(=O)n1-c1ccccc1N` returned a melting point of 109 to 111 °C.

Consider `Cc1nc2ccccc2c(=O)n1-c1ccc(S(=O)(=O)c2ccc(-n3c(C)nc4ccccc4c3=O)cc2)cc1` [Compound 7a, 3,3′-(Sulfonylbis(4,1-phenylene))bis(2-methylquinazolin-4(3H)-one)], for which the melting point lay within 294 to 297 °C. In addition, in data set [1] (setting [2]), the inhibition turned out to be 82.7 ± 1.63%. Further, the inhibition in data set [1] (setting [3]) was found to be 82.1 ± 0.5%. For the same molecule, the IC50 in data set [1] was determined as 4.58 µM.

For the molecule `Cc1nc2ccc([N+](=O)[O-])cc2c(=O)n1-c1ccc(S(=O)(=O)c2ccc(-n3c(C)nc4ccc([N+](=O)[O-])cc4c3=O)cc2)cc1` [Compound 7e, 3,3′-(Sulfonylbis(4,1-phenylene))bis(2-methyl-6-nitroquinazolin-4(3H)-one)], the melting point fell in the range of 316 to 319 °C. In addition, in data set [1] (from IC50 values), the “potency against A549 relative to sorafenib” value is “approximately twice as potent as sorafenib”. Also, the inhibition in data set [1] (setting [2]) amounted to 95.99 ± 0.14%. In data set [1] (setting [3]), the inhibition was found to be 96.76 ± 0.87%. In addition, in data set [1], the 50% inhibitory concentration (IC50) stood at 2.75 µM.

Turning to `Cc1nc2ccccc2c(=O)n1-c1cccc(N)c1`, the melting point lay within 121 to 123 °C.
